From patent US5446129A, “Peptide or its salt for autoimmune hyperthyroidism containing it” (Ishihara Sangyo Kaisha Ltd., priority 1990, dated 1995) come the findings set out here.

This experiment relates to production of cAMP under stimulation by TSAb. The experiment in a line: Test Example 2: cAMP produced under stimulation by TSAb in FRTL5 cells (96-well). The note with it: TSAb positive IgG. The format is cell-based, rat. As for the experimental part: Using rat established thyroid cell line FRTL5, the influence of the peptide over the production of cAMP under stimulation by TSAb, was examined in accordance with the method of S. Kosugi et al. (Endocrinology, Vol. 125, No. 1, p 410 (1989)). The method will be described as follows.
Preincubated FRTL5 cells (1.5×10^5 cells/ml) were transferred to a multiplate having 96 wells in an amount of 100 μl per well and incubated in a CO2 incubator for 6 days while changing the medium (having TSH excluded). Then, the medium was removed and the cells were rinsed and subjected to the test. 40 μl of a solution of IgG from TSAb positive serum and 10 μl of a solution containing 0, 15 or 30 μg of the desired peptide were reacted in a test tube at 4° C. for 20 hours. To this reaction solution, 5 μl of a 0.5 mM solution of 3-isobutyl-1-methylxanthine was added, and 50 μl of this reaction solution was added to the previously prepared FRTL5 cells, followed by incubation at 37° C. for two hours.
On the other hand, as control, a test was conducted in the same manner using a normal serum.
With respect to each sample, the quantitative analysis of cAMP produced under stimulation by TSAb was conducted by means of a commercially available cAMP-radioimmunoassay kit (1-VQ12, manufactured by Eiken Kagaku Corporation).

No end group written: not given here.

For the setting “15 μg/well peptide”, EQEDEIIGFG [Peptide No. 8] returned an Inhibition rate of 54% and a cAMP of 3.2 nM. For the setting “30 μg/well peptide”, this sequence registered an Inhibition rate of 76% and a cAMP of 1.8 nM.
